Patent publication US8003660B2, “Modulators of muscarinic receptors” (Vertex Pharmaceuticals Incorporated, priority 2006, dated 2011)

Experiments:
Type in all cases: cell-based
[1] = target: T1, M2 muscarinic receptor (Homo sapiens, UniProt P08172); assay: Functional mobilization of intracellular calcium (FLIPR) in CHO cells expressing M2; details: for EC50: CHO cells expressing M2, FLIPR calcium; for Emax: CHO, 100% = maximum response obtained with the Carbachol control, read-out: M2 Efficacy
T1 construct: expressed in transfected cells; host or cells: CHO (M2-CHO)
T1 sequence (P08172 1-466): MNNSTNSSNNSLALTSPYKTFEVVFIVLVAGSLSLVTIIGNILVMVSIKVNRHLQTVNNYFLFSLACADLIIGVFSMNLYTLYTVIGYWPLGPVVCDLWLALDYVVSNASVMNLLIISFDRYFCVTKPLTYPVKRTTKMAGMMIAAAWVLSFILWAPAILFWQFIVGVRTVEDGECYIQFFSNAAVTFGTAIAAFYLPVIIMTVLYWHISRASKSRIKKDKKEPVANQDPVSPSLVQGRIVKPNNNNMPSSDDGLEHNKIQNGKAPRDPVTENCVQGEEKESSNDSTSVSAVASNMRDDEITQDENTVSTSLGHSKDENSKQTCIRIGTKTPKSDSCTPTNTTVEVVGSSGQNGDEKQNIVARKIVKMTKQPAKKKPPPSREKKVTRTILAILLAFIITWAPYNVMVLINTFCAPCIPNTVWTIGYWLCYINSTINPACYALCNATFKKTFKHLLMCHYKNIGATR
In short: (§1)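 Recombinant CHO cells loaded with Fluo-3 AM or Calcium 3 dye in pH 7.4 buffer containing 1 mM probenecid, with 0.5% final DMSO. For agonism, compound is added directly. For inhibition, it is preincubated 15 min, or co-applied, before carbachol at EC80. FLIPR fluorescence (ex 488, em 540 nm) is recorded for 60 s.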

[2] = target: T2, M4 muscarinic receptor (Homo sapiens, UniProt P08173); assay: Functional mobilization of intracellular calcium (FLIPR) in CHO cells expressing M4; details: for EC50: CHO cells expressing M4, FLIPR calcium; for Emax: CHO, 100% = maximum response obtained with the Carbachol control, read-out: M4 Efficacy
T2 construct: expressed in transfected cells; host or cells: CHO (M4-CHO)
T2 sequence (P08173 1-479): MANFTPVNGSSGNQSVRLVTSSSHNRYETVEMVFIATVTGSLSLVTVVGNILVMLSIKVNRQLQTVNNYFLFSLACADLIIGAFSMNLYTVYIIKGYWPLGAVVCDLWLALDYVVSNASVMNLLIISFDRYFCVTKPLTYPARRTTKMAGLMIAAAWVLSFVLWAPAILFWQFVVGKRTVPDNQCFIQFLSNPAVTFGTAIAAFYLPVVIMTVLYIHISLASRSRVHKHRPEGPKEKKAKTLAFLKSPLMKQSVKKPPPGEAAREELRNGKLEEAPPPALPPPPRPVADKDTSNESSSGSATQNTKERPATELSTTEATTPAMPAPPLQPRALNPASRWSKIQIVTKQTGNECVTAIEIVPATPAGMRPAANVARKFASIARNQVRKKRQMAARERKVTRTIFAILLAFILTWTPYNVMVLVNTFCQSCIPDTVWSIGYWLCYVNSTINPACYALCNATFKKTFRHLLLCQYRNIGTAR
In short: as §1

[3] = target: T3, M1 muscarinic receptor (Homo sapiens, UniProt P11229); assay: Functional mobilization of intracellular calcium (FLIPR) in CHO cells expressing M1; details: for EC50: CHO cells expressing M1, FLIPR calcium; for Emax: CHO, 100% = maximum response obtained with the Carbachol control, read-out: M1 Efficacy
T3 construct: expressed in transfected cells; host or cells: CHO (M1-CHO)
T3 sequence (P11229 1-460): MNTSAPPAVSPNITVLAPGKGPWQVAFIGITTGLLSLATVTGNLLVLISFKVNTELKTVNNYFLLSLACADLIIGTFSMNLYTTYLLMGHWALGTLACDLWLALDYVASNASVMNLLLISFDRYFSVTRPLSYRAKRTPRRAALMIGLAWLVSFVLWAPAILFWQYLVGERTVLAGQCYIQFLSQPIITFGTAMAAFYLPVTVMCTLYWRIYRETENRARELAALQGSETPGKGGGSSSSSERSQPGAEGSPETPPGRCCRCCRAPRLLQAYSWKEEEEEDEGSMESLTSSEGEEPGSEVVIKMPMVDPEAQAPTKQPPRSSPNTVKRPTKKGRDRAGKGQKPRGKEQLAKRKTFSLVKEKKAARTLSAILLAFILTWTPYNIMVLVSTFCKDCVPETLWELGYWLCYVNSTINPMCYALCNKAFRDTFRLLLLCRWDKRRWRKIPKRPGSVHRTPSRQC
In short: as §1

[4] = target: T4, M3 muscarinic receptor (Homo sapiens, UniProt P20309); assay: Functional mobilization of intracellular calcium (FLIPR) in CHO cells expressing M3; details: for EC50: CHO cells expressing M3, FLIPR calcium; for Emax: CHO, 100% = maximum response obtained with the Carbachol control, read-out: M3 Efficacy
T4 construct: expressed in transfected cells; host or cells: CHO (M3-CHO)
In short: as §1

T4 sequence (P20309 whole entry): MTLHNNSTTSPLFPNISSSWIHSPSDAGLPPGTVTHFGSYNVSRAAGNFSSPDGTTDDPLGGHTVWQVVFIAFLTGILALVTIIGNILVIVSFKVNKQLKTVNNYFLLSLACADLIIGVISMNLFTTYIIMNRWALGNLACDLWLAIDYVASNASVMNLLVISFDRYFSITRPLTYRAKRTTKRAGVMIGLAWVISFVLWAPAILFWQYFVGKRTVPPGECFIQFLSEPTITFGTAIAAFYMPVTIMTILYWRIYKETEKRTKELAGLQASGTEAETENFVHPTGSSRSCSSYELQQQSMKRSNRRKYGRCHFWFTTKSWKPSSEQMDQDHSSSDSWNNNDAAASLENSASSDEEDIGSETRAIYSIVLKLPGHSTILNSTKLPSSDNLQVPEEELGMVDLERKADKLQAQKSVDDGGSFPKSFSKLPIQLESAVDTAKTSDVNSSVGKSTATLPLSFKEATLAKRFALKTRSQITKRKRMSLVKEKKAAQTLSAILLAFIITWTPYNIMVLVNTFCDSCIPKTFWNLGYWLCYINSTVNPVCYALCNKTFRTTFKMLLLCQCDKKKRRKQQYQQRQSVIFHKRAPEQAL

CC(=O)N1CCCC[C@H]1C(=O)N[C@H]1CCC2(CCN(CCC(C)(C)C)CC2)c2cc(F)ccc21 [compound 83]
EC50 [1]: > 5 µM | Emax [1]: < 25% | EC50 [2]: < 2 µM | Emax [2]: 25 to 100% | EC50 [3]: < 2 µM | Emax [3]: 25 to 100% | EC50 [4]: > 5 µM | Emax [4]: < 25%

CC(=O)N1CCC[C@H]1C(=O)N[C@@H]1CCC2(CCN(CCC(C)(C)C)CC2)c2ccccc21 [compound 84]
EC50 [1]: < 2 µM | Emax [1]: 25 to 100% | EC50 [2]: < 2 µM | Emax [2]: 25 to 100% | EC50 [3]: 2 to 5 µM | Emax [3]: 25 to 100% | EC50 [4]: > 5 µM | Emax [4]: < 25%

C[C@@H](O)CC(=O)N[C@H]1CCC2(CCN(CCC(C)(C)C)CC2)c2ccccc21 [compound 85]
EC50 [1]: < 2 µM | Emax [1]: 25 to 100% | EC50 [2]: < 2 µM | Emax [2]: 25 to 100% | EC50 [3]: < 2 µM | Emax [3]: 25 to 100% | EC50 [4]: > 5 µM | Emax [4]: < 25%

CC(=O)N(C(C)C)[C@H]1CCC2(CCN(CCC(C)(C)C)CC2)c2cc(F)ccc21 [compound 86]
EC50 [1]: > 5 µM | Emax [1]: < 25% | EC50 [2]: < 2 µM | Emax [2]: 25 to 100% | EC50 [3]: < 2 µM | Emax [3]: 25 to 100% | EC50 [4]: > 5 µM | Emax [4]: < 25%

CC(=O)NC(C(=O)N[C@@H]1CCC2(CCN(CCC(C)(C)C)CC2)c2ccccc21)C(C)C (stereo partly shown) [compound 87]
EC50 [1]: > 5 µM | Emax [1]: < 25% | EC50 [2]: < 2 µM | Emax [2]: 25 to 100% | EC50 [3]: > 5 µM | Emax [3]: < 25% | EC50 [4]: > 5 µM | Emax [4]: < 25%

CC(C)(C)CCN1CCC2(CC[C@H](NC(=O)CCOC(C)(C)C)c3ccccc32)CC1 [compound 88]
EC50 [1]: < 2 µM | Emax [1]: 25 to 100% | EC50 [2]: < 2 µM | Emax [2]: 25 to 100% | EC50 [3]: < 2 µM | Emax [3]: 25 to 100% | EC50 [4]: > 5 µM | Emax [4]: < 25%

CC(C)CCN1CCC2(CCCc3ccccc32)CC1 [compound 89]
EC50 [1]: > 5 µM | Emax [1]: < 25% | EC50 [2]: < 2 µM | Emax [2]: 25 to 100% | EC50 [3]: > 5 µM | Emax [3]: 25 to 100% | EC50 [4]: > 5 µM | Emax [4]: < 25%

CC(C)CCN1CCC2(CC[C@H](N3CCCC3=O)c3ccccc32)CC1 [compound 90]
EC50 [1]: > 5 µM | Emax [1]: < 25% | EC50 [2]: 2 to 5 µM | Emax [2]: 25 to 100% | EC50 [3]: 2 to 5 µM | Emax [3]: 25 to 100% | EC50 [4]: > 5 µM | Emax [4]: < 25%

CC(C)(C)CCN1CCC2(CC[C@H](N3CCCC3=O)c3ccc(F)cc32)CC1 [compound 91]
EC50 [1]: < 2 µM | Emax [1]: < 25% | EC50 [2]: < 2 µM | Emax [2]: 25 to 100% | EC50 [3]: < 2 µM | Emax [3]: 25 to 100% | EC50 [4]: > 5 µM | Emax [4]: < 25%

CC(=O)CCC(=O)N[C@H]1CCC2(CCN(CCC(C)(C)C)CC2)c2cc(F)ccc21 [compound 92]
EC50 [1]: < 2 µM | Emax [1]: 25 to 100% | EC50 [2]: < 2 µM | Emax [2]: 25 to 100% | EC50 [3]: < 2 µM | Emax [3]: 25 to 100% | EC50 [4]: > 5 µM | Emax [4]: < 25%

CC(C)(C)CCN1CCC2(CC[C@@H](NC(=O)CC3CCOCC3)c3ccc(F)cc32)CC1 [compound 93]
EC50 [1]: > 5 µM | Emax [1]: < 25% | EC50 [2]: < 2 µM | Emax [2]: 25 to 100% | EC50 [3]: 2 to 5 µM | Emax [3]: 25 to 100% | EC50 [4]: > 5 µM | Emax [4]: < 25%

CCCN1CCC2(CC[C@H](NC(C)=O)c3ccccc32)CC1 [compound 95]
EC50 [1]: > 5 µM | Emax [1]: < 25% | EC50 [2]: > 5 µM | Emax [2]: 25 to 100% | EC50 [3]: > 5 µM | Emax [3]: 25 to 100% | EC50 [4]: > 5 µM | Emax [4]: < 25%

CC(=O)NCCC(=O)N[C@H]1CCC2(CCN(CCC(C)(C)C)CC2)c2cc(F)ccc21 [compound 96]
EC50 [1]: < 2 µM | Emax [1]: 25 to 100% | EC50 [2]: < 2 µM | Emax [2]: 25 to 100% | EC50 [3]: < 2 µM | Emax [3]: 25 to 100% | EC50 [4]: > 5 µM | Emax [4]: < 25%

CC(C)(C)CCN1CCC2(CCC(C#N)c3ccccc32)CC1 (stereo not shown) [compound 97]
EC50 [1]: < 2 µM | Emax [1]: 25 to 100% | EC50 [2]: < 2 µM | Emax [2]: 25 to 100% | EC50 [3]: < 2 µM | Emax [3]: 25 to 100% | EC50 [4]: > 5 µM | Emax [4]: < 25%

Cn1cnc(C(=O)N[C@H]2CCC3(CCN(CCC(C)(C)C)CC3)c3ccccc32)c1 [compound 98]
EC50 [1]: > 5 µM | Emax [1]: < 25% | EC50 [2]: < 2 µM | Emax [2]: 25 to 100% | EC50 [3]: < 2 µM | Emax [3]: 25 to 100% | EC50 [4]: > 5 µM | Emax [4]: < 25%

CCOCC(=O)N[C@@H]1CCC2(CCN(CCC(C)(C)C)CC2)c2ccccc21 [compound 99]
EC50 [1]: > 5 µM | Emax [1]: < 25% | EC50 [2]: < 2 µM | Emax [2]: 25 to 100% | EC50 [3]: > 5 µM | Emax [3]: < 25% | EC50 [4]: > 5 µM | Emax [4]: < 25%

CCN(C(=O)CCNC(C)=O)[C@@H]1CCC2(CCN(CCC(C)(C)C)CC2)c2ccccc21 [compound 100]
EC50 [1]: > 5 µM | Emax [1]: < 25% | EC50 [2]: < 2 µM | Emax [2]: 25 to 100% | EC50 [3]: > 5 µM | Emax [3]: < 25% | EC50 [4]: > 5 µM | Emax [4]: < 25%

CCN(C(=O)c1cncn1C)[C@@H]1CCC2(CCN(CCC(C)(C)C)CC2)c2ccccc21 [compound 101]
EC50 [1]: > 5 µM | Emax [1]: < 25% | EC50 [2]: 2 to 5 µM | Emax [2]: 25 to 100% | EC50 [3]: < 2 µM | Emax [3]: 25 to 100% | EC50 [4]: > 5 µM | Emax [4]: < 25%

CC(C)(C)CCN1CCC2(CC[C@H](N3C(=O)CCC3=O)c3ccccc32)CC1 [compound 102]
EC50 [1]: > 5 µM | Emax [1]: < 25% | EC50 [2]: < 2 µM | Emax [2]: 25 to 100% | EC50 [3]: 2 to 5 µM | Emax [3]: 25 to 100% | EC50 [4]: > 5 µM | Emax [4]: < 25%

CC(C)(C)CCN1CCC2(CC[C@H](NC(=O)C3CCC(=O)N3)c3ccc(F)cc32)CC1 (stereo partly shown) [compound 103]
EC50 [1]: < 2 µM | Emax [1]: < 25% | EC50 [2]: < 2 µM | Emax [2]: 25 to 100% | EC50 [3]: < 2 µM | Emax [3]: 25 to 100% | EC50 [4]: > 5 µM | Emax [4]: < 25%

CC(=O)N[C@H]1CCC2(CCN(CC(C)C)CC2)c2ccccc21 [compound 104]
EC50 [1]: > 5 µM | Emax [1]: 25 to 100% | EC50 [2]: 2 to 5 µM | Emax [2]: 25 to 100% | EC50 [3]: 2 to 5 µM | Emax [3]: 25 to 100% | EC50 [4]: > 5 µM | Emax [4]: < 25%

COCCC(=O)N[C@@H]1CCC2(CCN(CCC(C)(C)C)CC2)c2ccccc21 [compound 105]
EC50 [1]: > 5 µM | Emax [1]: < 25% | EC50 [2]: < 2 µM | Emax [2]: 25 to 100% | EC50 [3]: 2 to 5 µM | Emax [3]: < 25% | EC50 [4]: > 5 µM | Emax [4]: < 25%

C[C@@H](C(=O)N[C@H]1CCC2(CCN(CCC(C)(C)C)CC2)c2cc(F)ccc21)N1CCCC1=O [compound 106]
EC50 [1]: < 2 µM | Emax [1]: 25 to 100% | EC50 [2]: < 2 µM | Emax [2]: 25 to 100% | EC50 [3]: < 2 µM | Emax [3]: 25 to 100% | EC50 [4]: > 5 µM | Emax [4]: < 25%
